Among the data in patent publication US20110070190A1 (Roche Palo Alto LLC, priority 2009, published 2011) are melting point and IC50 values, retold here.

In series [1] the target is T1, HCV polymerase (NS5B570n-Con1) (Hepatitis C virus genotype 1b, UniProt Q9WMX2).
T1 construct: a 21 amino acid C-terminal deletion of full-length HCV polymerase; made in house; host or cells: E. coli BL21(DE3) pLysS, plasmid pET17b
Kind of series: HCV NS5B RNA polymerase activity (incorporation of radiolabeled nucleotide into acid insoluble RNA). The format is biochemical, HCV Con1 strain. The procedure:
The enzymatic activity of HCV polymerase (NS5B570n-Con1) was measured as the incorporation of radiolabeled nucleotide monophosphates into acid insoluble RNA products. Unincorporated radiolabeled substrate was removed by filtration and scintillant was added to the washed and dried filter plate containing radiolabeled RNA product. The amount of RNA product generated by NS5B570n-Con1 at the end of the reaction was directly proportional to the amount of light emitted by the scintillant.
The HCV polymerase used in the enzymatic activity assay is a 21 amino acid C-terminal deletion of full-length HCV polymerase derived from HCV Con1 strain, genotype 1b (GenBank accession number AJ242654) (NS5B570n-Con1). The NS5B570n-Con1 was sub-cloned downstream to the T7 promoter of the plasmid expression construct pET17b and transformed into E. coli strain BL21(DE3) pLysS for protein expression. A single colony was used to start an innoculum for a 10 L culture in LB media supplemented with 100 μg/mL ampicillin at 37° C. Protein expression was induced by the addition of 0.25 mM isopropyl-β-D-thiogalactopyranoside (IPTG) when the optical density of the culture at […] was 0.8. Induction of protein expression was carried out at 30° C. for 16 h after which the cells were harvested by centrifugation. NS5B570n-Con1 was purified to homogeneity using a three-column purification protocol including subsequent column chromatography on Ni-NTA, SP-Sepharose HP and Superdex 75 resins.
Enzymatic reactions in the presence of cIRES RNA template (see paragraph [00213]) contained 20 nM cIRES RNA, 20 nM NS5B570n-Con1 enzyme, 0.5 μCi of tritiated UTP (Perkin Elmer catalog no. TRK-412; specific activity: 30 to 60 Ci/mmol;), 1 μM each ATP, CTP, and GTP, 40 mM Tris-HCl pH 8.0, 40 mM NaCl, 4 mM DTT (dithiothreitol), 4 mM MgCl2, 5 μl of compound serial diluted in DMSO, and nuclease-free water to a final reaction volume of 50 μl. Enzymatic reactions in the presence of poly A RNA template (see paragraph [00213]) contained 20 nM Poly A:oligo(rU)16 premixed (see section 0004), 20 nM NS5B570n-Con1 enzyme, 1 μCi of tritiated UTP (Perkin Elmer catalog no. TRK-412; specific activity: 30 to 60 Ci/mmol), 40 mM Tris-HCl pH 8.0, 40 mM NaCl, 4 mM DTT (dithiothreitol), 4 mM MgCl2, 5 μl of compound serial diluted in DMSO, and nuclease-free water to a final reaction volume of 50 μl. Reaction mixtures were assembled in 96-well filter plates (cat #MADVN0B, Millipore Co.) and incubated for 2 h at 30° C. Reactions were stopped by addition of 10% final (v/v) trichloroacetic acid and incubated for 40 min at 4° C. Reactions were filtered, washed with 8 reaction volumes of 10% (v/v) trichloroacetic acetic acid, 4 reaction volumes of 70% (v/v) ethanol, air dried, and 25 μl of scintillant (Microscint 20, Perkin-Elmer) was added to each reaction well.
Two RNA templates were used to assay compounds described herein. The cIRES RNA template was 377 nucleotide long and consisted of a partial complementary sequence (36 nucleotides) of the core protein, followed by 341 nucleotide of the complementary sequence of the internal ribosome entry site. The poly A RNA template (GE Amersham catalog number 27-4110) was a homopolymeric RNA pre-annealed to a oligo(rU)16 primer at a molar ratio of 3-to-1 (primer-template).
The amount of light emitted from the scintillant was converted to counts per minute (CPM) on a Topcount® plate reader (Perkin-Elmer, Energy Range: Low, Efficiency Mode: Normal, Count Time: 1 min, Background Subtract: none, Cross talk reduction: Off).
Data was analyzed in Excel® (Microsoft®) and ActivityBase® (Idbs®). The reaction in the absence of enzyme was used to determine the background signal, which was subtracted from the enzymatic reactions. Positive control reactions were performed in the absence of compound, from which the background corrected activity was set as 100% polymerase activity. All data was expressed as a percentage of the positive control. […]

By melting point is commonly meant the temperature, or range, at which the solid turns liquid. The IC50 is the point on the concentration scale where inhibition reaches its midpoint. `O=c1ncn(Cc2ccc(Cl)cc2)c2cc(-c3ccc(OCc4ccccn4)c(Cl)c3)sc12` [Compound I-6, 1-(4-chloro-benzyl)-6-[3-chloro-4-(pyridin-2-ylmethoxy)-phenyl]-1H-thieno[3,2-d]pyrimidin-4-one] showed a melting point of 272 to 274 °C. Besides, the IC50 in series [1] turned out to be 0.018 µM.

For `O=c1ncn(Cc2ccc(Cl)cc2)c2cc(-c3ccc(OCc4cnccn4)cc3)sc12` [Compound I-16, 1-(4-chloro-benzyl)-6-[4-(pyrazin-2-ylmethoxy)-phenyl]-1H-thieno[3,2-d]pyrimidin-4-one], the melting point was 236.9 to 239.6 °C. The compound also displayed an IC50 in series [1] of 0.071 µM.

`Cc1ccc(Cn2cnc(=O)c3sc(-c4ccccc4)cc32)c(F)c1` [Compound I-21] had a melting point of 225.1 to 225.8 °C. In series [1], this compound had an IC50 of 0.126 µM.

With `Cc1ccc(Cn2cnc(=O)c3sc(-c4ccc(Cl)cc4)cc32)cc1` [Compound I-22], the melting point was 244.1 to 247.5 °C. For the same compound, the IC50 in series [1] worked out at 0.131 µM.

Regarding `O=c1ncn(Cc2ccc(Cl)cc2)c2cc(-c3ccc(OCc4ccccn4)cc3)sc12` [Compound I-28, 1-(4-Chloro-benzyl)-6-[4-(pyridin-2-ylmethoxy)-phenyl]-1H-thieno[3,2-d]pyrimidin-4-one], the melting point was in the range of 233 to 235 °C. In addition, it took 0.051 µM to reach half-maximal inhibition in series [1] (IC50).

In turn, `Cc1ccc(Cn2cnc(=O)c3sc(-c4ccc(C(C)(C)C)cc4)cc32)cc1` [Compound I-29] registered a melting point of 260.5 to 261.5 °C. Also, half-maximal inhibition in series [1] (IC50) was put at 0.223 µM.

In series [1], `O=C(Nc1ccc(-c2cc3c(s2)c(=O)ncn3Cc2ccc(Cl)cc2)cc1)c1ccccn1` [Compound I-39, Pyridine-2-carboxylic acid {4-[1-(4-chloro-benzyl)-4-oxo-1,4-dihydro-thieno[3,2-d]pyrimidin-6-yl]-phenyl}-amide] displayed an IC50 of 0.005 µM.

On to `O=C(Nc1ccc(-c2cc3c(s2)c(=O)ncn3Cc2ccc(Cl)cc2)nc1)c1ccccn1` [Compound I-40, Pyridine-2-carboxylic acid {6-[1-(4-chloro-benzyl)-4-oxo-1,4-dihydro-thieno[3,2-d]pyrimidin-6-yl]-pyridin-3-yl}-amide], for which the IC50 in series [1] amounted to 0.131 µM.

`O=C(Nc1ccc(-c2cc3c(s2)c(=O)ncn3Cc2ccc(Cl)cc2)cn1)c1ccccn1` [Compound I-41, Pyridine-2-carboxylic acid {5-[1-(4-chloro-benzyl)-4-oxo-1,4-dihydro-thieno[3,2-d]pyrimidin-6-yl]-pyridin-2-yl}-amide] returned an IC50 in series [1] of 0.062 µM.

`Cc1cc(N)n2nc(-c3ccc(-c4cc5c(s4)c(=O)ncn5Cc4ccc(Cl)cc4)cn3)cc2n1` [Compound I-42, 6-[6-(7-Amino-5-methyl-pyrazolo[1,5-a]pyrimidin-2-yl)-pyridin-3-yl]-1-(4-chloro-benzyl)-1H-thieno[3,2-d]pyrimidin-4-one]: the IC50 in series [1] came out at 0.019 µM.

For the compound `Cc1cc(N)n2nc(-c3ccc(-c4cc5c(s4)c(=O)ncn5C[C@H]4CC[C@H](C)CC4)cn3)cc2n1` [Compound I-43, 6-[6-(7-Amino-5-methyl-pyrazolo[1,5-a]pyrimidin-2-yl)-pyridin-3-yl]-1-(4-methyl-cyclohexylmethyl)-1H-thieno[3,2-d]pyrimidin-4-one], in series [1], the IC50 worked out at 0.428 µM.

Consider `O=c1ncn(Cc2ccc(Cl)cc2)c2cc(-c3ccc(OCc4ccccc4)c(Cl)c3)sc12` [Compound I-44, 6-(4-Benzyloxy-3-chloro-phenyl)-1-(4-chloro-benzyl)-1H-thieno[3,2-d]pyrimidin-4-one], for which the melting point fell in the range of 222 to 224 °C. In series [1], this compound came in with an IC50 of 0.03 µM.

As for `Cc1cc(N)nc(COc2ccc(-c3cc4c(s3)c(=O)ncn4Cc3ccc(Cl)cc3)cc2)n1` [Compound I-45, 6-[4-(4-Amino-6-methyl-pyrimidin-2-ylmethoxy)-phenyl]-1-(4-chloro-benzyl)-1H-thieno[3,2-d]pyrimidin-4-one], the melting point lay within 272 to 274 °C. For the same compound, the IC50 in series [1] came out at 0.372 µM.

In the case of `O=C(Nc1ccc(-c2cc3c(s2)c(=O)ncn3Cc2ccc(Cl)cc2)cc1)c1ccc(O)cn1` [Compound I-46, 5-Hydroxy-pyridine-2-carboxylic acid, {4-[1-(4-chloro-benzyl)-4-oxo-1,4-dihydro-thieno[3,2-d]pyrimidin-6-yl]-phenyl}-amide], inhibition in series [1] was half-maximal at 0.017 µM (IC50).

For `O=C(Nc1ccccc1)c1ccc(-c2cc3c(s2)c(=O)ncn3Cc2ccc(Cl)cc2)cc1` [Compound I-47, 4-[1-(4-Chloro-benzyl)-4-oxo-1,4-dihydro-thieno[3,2-d]pyrimidin-6-yl]-N-phenyl-benzamide], the IC50 in series [1] was ~0.04 µM.

With `O=c1ncn(Cc2ccc(Cl)cc2)c2cc(-c3ccc(SCc4ccccn4)cc3)sc12` [Compound I-48, 1-(4-Chloro-benzyl)-6-[4-(pyridin-2-ylmethylsulfanyl)-phenyl]-1H-thieno[3,2-d]pyrimidin-4-one], the IC50 in series [1] is 0.163 µM.

`O=c1ncn(Cc2ccc(Cl)cc2)c2cc(-c3ccc(NCc4ccccc4)cc3)sc12` [Compound I-49, 6-(4-Benzylamino-phenyl)-1-(4-chloro-benzyl)-1H-thieno[3,2-d]pyrimidin-4-one]: in series [1], the IC50 turned out to be 0.377 µM.

Consider `O=c1ncn(Cc2ccc(Cl)cc2)c2cc(-c3ccc(OCc4cccnc4)cc3)sc12` [Compound I-50, 1-(4-Chloro-benzyl)-6-[4-(pyridin-3-ylmethoxy)-phenyl]-1H-thieno[3,2-d]pyrimidin-4-one], for which the melting point fell in the range of 255 to 257 °C. This compound gave an IC50 in series [1] of 0.103 µM.

In series [1], `O=c1ncn(Cc2ccc(Cl)cc2)c2cc(-c3ccc(SCc4cccnc4)cc3)sc12` [Compound I-51, 1-(4-Chloro-benzyl)-6-[4-(pyridin-3-ylmethylsulfanyl)-phenyl]-1H-thieno[3,2-d]pyrimidin-4-one] yielded an IC50 of 0.313 µM.

Consider `Cc1ccc(Cn2cnc(=O)c3sc(-c4ccc(CO)cc4)cc32)cc1` [Compound I-53, 6-(4-Hydroxymethyl-phenyl)-1-(4-methyl-benzyl)-1H-thieno[3,2-d]pyrimidin-4-one], for which the IC50 in series [1] worked out at 0.56 µM.

In series [1], `O=C(Nc1ccc(-c2cc3c(s2)c(=O)ncn3Cc2ccc(Cl)cc2)cc1)N1CCCC1` [Compound I-54, Pyrrolidine-1-carboxylic acid {4-[1-(4-chloro-benzyl)-4-oxo-1,4-dihydro-thieno[3,2-d]pyrimidin-6-yl]-phenyl}-amide] gave a concentration for half-maximal inhibition (IC50) of 0.076 µM.

The compound `CC(C)C(=O)Nc1ccc(-c2cc3c(s2)c(=O)ncn3Cc2ccc(Cl)cc2)cc1F` [Compound I-55] showed a half-maximal inhibitory concentration (IC50) in series [1] of 1.79 µM.

In series [1], `O=c1ncn(Cc2ccc(Cl)cc2)c2cc(-c3ccc(N4CCCC4)cc3)sc12` [Compound I-56, 1-(4-Chloro-benzyl)-6-(4-pyrrolidin-1-yl-phenyl)-1H-thieno[3,2-d]pyrimidin-4-one] had an IC50 of 1.61 µM.

For `Cc1ccc(Cn2cnc(=O)c3sc(-c4ccc(-c5cc6ncccn6n5)cc4)cc32)cc1` [Compound I-57, 1-(4-Methyl-benzyl)-6-(4-pyrazolo[1,5-a]pyrimidin-2-yl-phenyl)-1H-thieno[3,2-d]pyrimidin-4-one], the IC50 in series [1] was 0.108 µM.

Regarding `O=c1ncn(Cc2ccc(Cl)cc2)c2cc(-c3ccc(SCc4ccncc4)cc3)sc12` [Compound I-59], the IC50 in series [1] was determined as 0.167 µM.
